Measured values: paper PMC3038857, “Using Nuclear Receptor Activity to Stratify Hepatocarcinogens” (PLoS ONE, 2011)

What was measured:
LXRb (NR1H2) = biological target: T1, LXRb (NR1H2) (Homo sapiens, UniProt P55055); assay: ATG_LXRb_TRANS: Factorial reporter gene assay (HepG2); type: cell-based; conditions: HepG2; scale not given, looks like -log10 of molar active concentration; 0 = no activity
T1 construct: expressed in transfected cells; host or cells: HepG2
T1 sequence (P55055 1-460): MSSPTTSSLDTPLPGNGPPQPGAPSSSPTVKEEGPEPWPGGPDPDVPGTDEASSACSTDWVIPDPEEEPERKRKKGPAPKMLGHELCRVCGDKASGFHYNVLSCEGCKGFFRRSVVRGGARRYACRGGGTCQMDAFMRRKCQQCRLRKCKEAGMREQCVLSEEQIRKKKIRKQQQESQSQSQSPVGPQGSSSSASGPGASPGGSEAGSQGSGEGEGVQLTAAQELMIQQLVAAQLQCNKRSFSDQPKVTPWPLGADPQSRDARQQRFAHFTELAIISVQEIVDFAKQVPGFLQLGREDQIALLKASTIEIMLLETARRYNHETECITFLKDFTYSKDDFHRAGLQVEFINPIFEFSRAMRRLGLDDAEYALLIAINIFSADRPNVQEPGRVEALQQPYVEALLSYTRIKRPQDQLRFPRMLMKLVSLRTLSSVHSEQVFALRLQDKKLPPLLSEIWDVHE
Summary of the method: (§1)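 HepG2 cells transfected with multiplexed reporter libraries: cis-acting binding-site reporters (CIS) and a one-hybrid nuclear-receptor trans system (TRANS). Chemicals tested at seven concentrations, starting at the maximum tolerated concentration with three-fold serial dilutions.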

ERa (ESR1) = biological target: T2, ERa (ESR1) (Homo sapiens, UniProt P03372); assay: NCGC_ERalpha_Antagonist: GAL4 BLAM Reporter gene assay: ERa; type: cell-based; conditions: antagonist mode; scale not given, looks like -log10 of molar active concentration; 0 = no activity
T2 construct: expressed in transfected cells; host or cells: HEK293
T2 sequence (P03372 whole entry, the tested form may be a part): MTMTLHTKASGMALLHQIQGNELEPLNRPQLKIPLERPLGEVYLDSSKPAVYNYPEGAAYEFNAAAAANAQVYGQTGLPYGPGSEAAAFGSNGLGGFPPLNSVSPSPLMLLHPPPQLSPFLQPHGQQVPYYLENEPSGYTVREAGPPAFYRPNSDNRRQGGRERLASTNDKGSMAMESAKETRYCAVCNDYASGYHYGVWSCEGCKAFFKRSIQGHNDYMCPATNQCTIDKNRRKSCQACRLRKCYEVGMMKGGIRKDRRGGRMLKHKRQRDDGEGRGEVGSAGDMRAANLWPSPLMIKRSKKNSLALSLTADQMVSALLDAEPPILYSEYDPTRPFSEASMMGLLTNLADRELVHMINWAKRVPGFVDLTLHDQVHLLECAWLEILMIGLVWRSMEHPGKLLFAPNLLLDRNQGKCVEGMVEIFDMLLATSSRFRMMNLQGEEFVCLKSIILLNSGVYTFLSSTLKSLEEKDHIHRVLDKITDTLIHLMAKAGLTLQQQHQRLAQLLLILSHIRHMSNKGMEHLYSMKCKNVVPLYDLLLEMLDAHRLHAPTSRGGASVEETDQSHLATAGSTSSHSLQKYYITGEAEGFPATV

Rat Liver [1] = conditions: rat chronic study, liver, any lesion; coded 6 / 0, code not explained here; ref ToxRefDB; cited from earlier work
[2] = biological target: T3, PPARA (peroxisome proliferator-activated receptor alpha) (Homo sapiens, UniProt Q07869); assay: ATG_PPARa_TRANS: Factorial reporter gene assay (HepG2); type: cell-based; parameters: scale not given here; conditions: scale not given, looks like -log10 of molar active concentration, 0 = no activity
T3 construct: expressed in transfected cells; host or cells: HepG2
T3 sequence (Q07869 1-468): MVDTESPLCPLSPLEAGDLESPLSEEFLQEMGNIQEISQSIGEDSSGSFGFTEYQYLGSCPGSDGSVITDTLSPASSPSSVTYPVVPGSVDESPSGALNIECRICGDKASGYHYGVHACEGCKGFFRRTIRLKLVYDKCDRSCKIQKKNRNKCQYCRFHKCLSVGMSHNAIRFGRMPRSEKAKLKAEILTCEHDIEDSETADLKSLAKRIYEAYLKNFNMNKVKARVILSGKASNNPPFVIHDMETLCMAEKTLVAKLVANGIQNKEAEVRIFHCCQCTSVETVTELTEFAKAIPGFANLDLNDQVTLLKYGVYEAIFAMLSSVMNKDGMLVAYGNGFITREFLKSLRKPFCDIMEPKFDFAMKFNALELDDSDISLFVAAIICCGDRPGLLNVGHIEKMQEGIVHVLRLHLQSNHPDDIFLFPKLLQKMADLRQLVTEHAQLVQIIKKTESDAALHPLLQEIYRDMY
Method: A multiple reporter transcription unit (MRTU) library consisting of 48 transcription factor binding sites was transfected into the HepG2 human liver hepatoma cell line. In addition to the cis-acting reporter genes (CIS), a modification of the approach was used to generate a trans-system (TRANS) with a mammalian one-hybrid assay consisting of an additional 25 MRTU library reporting the activity of nuclear receptor super-family members. […] These assays were performed by Attagene Inc. (Morrisville NC) under contract to EPA.
In addition to the cis-acting reporter genes (CIS), a modification of the approach was used to generate a trans-system (TRANS) with a mammalian one-hybrid assay consisting of an additional 25 MRTU library reporting the activity of nuclear receptor super-family members. […] Chemicals were then tested in the CIS and TRANS assays at seven concentrations starting at the MTC and followed by three-fold serial dilutions. These assays were performed by Attagene Inc. (Morrisville NC) under contract to EPA. Detailed description of the methods, data and analysis methods for this dataset will be presented in a separate publication.

LXRa (NR1H3) = biological target: T4, LXRa (NR1H3) (Homo sapiens, UniProt Q13133); assay: ATG_LXRa_TRANS: Factorial reporter gene assay (HepG2); type: cell-based; conditions: HepG2; scale not given, looks like -log10 of molar active concentration; 0 = no activity
T4 construct: expressed in transfected cells; host or cells: HepG2
T4 sequence (Q13133 1-447): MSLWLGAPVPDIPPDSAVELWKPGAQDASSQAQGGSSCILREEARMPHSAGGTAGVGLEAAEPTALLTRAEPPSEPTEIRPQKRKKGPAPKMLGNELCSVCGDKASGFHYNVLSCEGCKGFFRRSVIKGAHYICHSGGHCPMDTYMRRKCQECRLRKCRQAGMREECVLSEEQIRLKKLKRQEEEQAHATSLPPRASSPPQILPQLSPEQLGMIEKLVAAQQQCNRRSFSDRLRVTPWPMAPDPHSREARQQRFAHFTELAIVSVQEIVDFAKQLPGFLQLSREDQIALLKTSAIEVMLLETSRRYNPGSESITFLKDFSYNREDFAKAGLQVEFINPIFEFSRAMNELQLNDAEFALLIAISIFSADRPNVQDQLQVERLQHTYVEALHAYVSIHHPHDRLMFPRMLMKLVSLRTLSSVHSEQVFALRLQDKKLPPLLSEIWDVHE
Summary of the method: as §1

Rat Liver [3] = conditions: rat chronic study, liver, preneoplastic lesion; coded 6 / 0, code not explained here; ref ToxRefDB; cited from earlier work
CAR (NR1I3) = biological target: T5, CAR (NR1I3) (Homo sapiens, UniProt Q14994); assay: ATG_PBREM_CIS: Factorial reporter gene assay (HepG2); type: cell-based; parameters: endogenous in cells; host or cells: HepG2; scale not given here; conditions: HepG2; scale not given, looks like -log10 of molar active concentration; 0 = no activity
T5 sequence (Q14994 1-352): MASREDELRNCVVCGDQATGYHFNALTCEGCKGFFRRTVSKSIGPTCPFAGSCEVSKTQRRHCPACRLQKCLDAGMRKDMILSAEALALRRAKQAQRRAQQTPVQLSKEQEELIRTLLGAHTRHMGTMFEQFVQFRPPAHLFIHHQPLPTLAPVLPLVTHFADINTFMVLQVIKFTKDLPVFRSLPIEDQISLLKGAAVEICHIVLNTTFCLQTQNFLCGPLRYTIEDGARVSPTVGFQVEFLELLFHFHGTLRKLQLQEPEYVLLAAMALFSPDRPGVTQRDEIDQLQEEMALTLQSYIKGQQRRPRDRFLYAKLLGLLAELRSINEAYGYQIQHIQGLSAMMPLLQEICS
Summary of the method: as §1

Row | Compound | ATG_LXRb_TRANS (LXRb (NR1H2)) | NCGC_ERalpha_Antagonist (ERa (ESR1)) | CHR_Rat_Liver_1_AnyLesion (Rat Liver [1]) | ATG_PPARa_TRANS [2] | ATG_LXRa_TRANS (LXRa (NR1H3)) | CHR_Rat_Liver_2_PreneoplasticLesion (Rat Liver [3]) | ATG_PBREM_CIS (CAR (NR1I3))
1 | OB(O)O [r41] | 0 | 0 | 0 | 0 | 0 | 0 | 0
2 | C=CCOC(=O)C(C)(C)OC(=O)c1cc(-n2c(=O)cc(C(F)(F)F)n(C)c2=O)ccc1Cl [r47] | 0 | 0 | 6 | 0 | 0 | 0 | 0
3 | CCCCOCN(C(=O)CCl)c1c(CC)cccc1CC [r46] | 0 | 0 | 6 | 0 | 0 | 0 | 0
4 | COc1nc(C)nc(NC(=O)NS(=O)(=O)c2ccccc2Cl)n1 [r62] | 0 | 0 | 6 | 0 | 0 | 0 | 0
5 | CCC(C)n1c(=O)[nH]c(C)c(Br)c1=O (stereo not drawn) [r43] | 0 | 0 | 0 | 0 | 0 | 0 | 0
6 | COc1ccc(-c2ccccc2)cc1NNC(=O)OC(C)C [r38] | 0 | 4.31 | 0 | 0 | 0 | 0 | 0
7 | CC(C)N1C(=O)N(c2ccccc2)CS/C1=N\C(C)(C)C [r45] | 0 | 0 | 6 | 0 | 0 | 6 | 0
8 | CCOC(=O)C(Cl)Cc1cc(-n2nc(C)n(C(F)F)c2=O)c(F)cc1Cl (stereo not drawn) [r54] | 0 | 0 | 6 | 0 | 0 | 0 | 0
9 | N#Cc1cc(Br)c(O)c(Br)c1 [r44] | 0 | 0 | 6 | 4.678 | 0 | 0 | 0
